Experimental findings from patent US10034913B2, “Anti-angiogenic peptides and uses thereof” (Health Research, Inc., priority 2011, dated 2018) are described below.

The test system of one data set is HUVEC. Nature of the data set: Matrigel endothelial tube formation assay. The class given is cell-based, human. To be noted: for reproducible anti-angiogenic activity: tested at 10 and 100 μM; for anti-angiogenic activity, inhibition of tube formation by HUVEC in Matrigel: 10 uM, 18 hr, FIGS. 14, 19, 20. From the text:
The 3-D model of human PSA, the amino acid sequence of the initial five candidate peptides, and their color-coded location on the exterior of the PSA protein molecule in aqueous solution, are presented in FIG. 8. Five PSA-mimetic peptides with >90% purity were acquired from GeneScript Corporation, Piscataway, N.J., and tested for anti-angiogenic activity against HUVECs in the Matrigel tube formation assay with intact PSA as the control (FIGS. 9 &10). Briefly, to perform these assays, 10^4 HUVEC cells are mixed with the PSA mimetic peptide, and, the mixture placed on top of a solidified, pre-poured Matrigel layer in a flat bottomed well of a multi-chambered plate, and the culture incubated for 16-18 hr to allow time for the endothelial cells to migrate and form tubular structures. At the conclusion of the incubation, digital images were made from the center of each culture to avoid bias, and 3-4 wells for each test condition were imaged. The images are processed under the Analyze 7.0 and “Angioquant” software packages, for imaging and quantification. The total length of tubular structures in the image is determined, and averaged over the replicate cultures. This method of quantification allows for accurate, unbiased measurement of tube lengths. Peptides having each of the peptide sequences shown in FIG. 8 are encompassed within the scope of the invention, including all modifications and substitutions to the sequences as described supra.
The experimental endpoint, measured by digital image analysis, is the total area of the image comprised of endothelial cells (tubes). […] While the reason for the decrease in the amount of anti-angiogenic activity in this figure when the concentration of the peptides is increased from 10 to 100 μM is not clear, it may be related to a dosing response observed in this case. […] FIG. 10 presents the evaluation of anti-angiogenic activity for peptides #1 and #3 relative to the level of inhibition by native PSA, averaged over multiple experiments with different parental populations of HUVEC cells. Across multiple sets of experiments, both peptides inhibited the angiogenic activity of HUVEC by 35-40% relative to native PSA.
FIG. 13 is a graphical representation of data showing anti-angiogenic activity of f-PSA, PSA-P3L, and PSA-P3C by inhibiting tube formation by HUVEC in a Matrigel assay. To produce the results summarized in FIG. 13, a 24-well tissue culture plate was coated with 200 ul/well of Matrigel and incubated for 30 min at 37 C. Approximately 80,000 HUVEC in 0.5 ml of media supplemented with f-PSA or PSA-P3L, PSA-P3C was applied on top of the Matrigel layer and cells were incubated for 18 hr at 37 C foe endothelial cell tube formation. Live cell images (4× magnification) were taken using Nikon Eclipse TE300 inverted microscope system and analyzed using Spot Advance software program. Five images were taken/well. The images were processed further using Analyze 7.0 (AnalyzeDirect, Inc., Overland Park, Kans.) and Angioquant v1.33 to obtain the average tube length for each image. Percent inhibition is expressed in relation to tube length in untreated control cells.

The next data set deals with HUVEC cells. Briefly: Expression of angiogenesis/vasculogenesis genes in HUVEC, enzymatically active vs inactive PSA. The class given is cell-based, human. The method, then: (§1) Enzymatically active PSA, and PSA inactivated by incubation with Zinc^2+ [activity inhibited>75% by 5.0 μM of Zinc, inset FIG. 4] were compared for their respective effects on expression of genes involved in angiogenesis/vasculogenesis in HUVEC cells.

The target in the next data set is T1, PSA (Homo sapiens, UniProt P07288).
T1 construct: The 237 amino acid protein (25-261) were used in the studies that include PSA as described herein; from tissue; host or cells: human seminal plasma (f-PSA); human prostate cancer tissue specimens (T-PSA)
T1 sequence (P07288 25-261): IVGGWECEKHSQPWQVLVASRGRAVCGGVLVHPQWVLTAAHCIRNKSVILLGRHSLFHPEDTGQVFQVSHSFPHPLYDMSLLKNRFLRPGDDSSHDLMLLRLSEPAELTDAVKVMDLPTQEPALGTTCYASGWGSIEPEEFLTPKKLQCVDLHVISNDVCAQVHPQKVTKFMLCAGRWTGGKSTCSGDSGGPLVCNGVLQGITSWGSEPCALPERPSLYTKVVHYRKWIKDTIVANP
Briefly: Inhibition of PSA enzymatic activity by zinc. The class given is biochemical. The method, then:
(§2) Hydrolysis of the fluorogenic substrate was quantitated using a LS-45 Luminescence Spectrometer from Perkin Elmer) using the FL-Winlab® program. Human prostate cancer tissue specimens were obtained from the Pathology Resource Network at Roswell Park Cancer Institute under an IRB approved protocol.
as §1

The target of data set [1] is T2, Mu-His-Ser-Ser-Lys-Leu-Gln—AFC (Homo sapiens, UniProt P07288).
T2 construct: The 237 amino acid protein (25-261) were used in the studies that include PSA as described herein; from tissue; host or cells: human seminal plasma (f-PSA); human prostate cancer tissue specimens (T-PSA)
T2 sequence (P07288 25-261): as above
Nature of the data set: Enzymatic activity of isolated PSA, hydrolysis of fluorogenic substrate. The class given is biochemical. How it is done:
In particular, enzymatic activity of PSA isolated from human seminal plasma (f-PSA) and from human prostate cancer tissue specimens (Tissue-PSA: T-PSA) was evaluated routinely using a substrate (Mu-His-Ser-Ser-Lys-Leu-Gln—AFC) (SEQ ID NO:102) (Calbiochem) that is highly specific for PSA. […] PSA in the tissue microenvironment (T-PSA) is largely free and enzymatically active. T-PSA levels are lower in advanced prostate cancer than benign prostate, and T-PSA levels correlate with prognosis in prostate cancer, as well as in breast cancer; the higher the T-PSA level, the better the prognosis.
as §2

Data set [2] has as its system ANG2 gene expression in HUVEC. Briefly: ANG2 gene expression in HUVEC, Real-time QPCR. The class given is cell-based, human. The note with it: 10 uM, average of three experiments. How it is done: FIG. 18 is a graphical representation of data showing modulation of ANG2 gene expression in HUVEC by f-PSA, PSA-P31 and PSA-P3C. To produce the results summarized in FIG. 18, nearly confluent monolayers of HUVEC were treated with 10 uM of f-PSA, PSA-P3L or PSA-P3C; RNA extracted and reverse transcribed. The c-DNA was amplified by Real-time QPCR using specific primer. The results shown are an average of three experiments. […] Accordingly, in one embodiment, the invention provides a method for inhibiting ANG2 expression in human endothelial cells comprising contacting the cells with one or more peptides of the invention.

In data set [3] the test system is VEGF gene expression in HUVEC. Nature of the data set: VEGF gene expression in HUVEC, Real-time QPCR. The class given is cell-based, human. The note with it: 10 uM, average of three experiments. How it is done: FIG. 17 is a graphical representation of data showing modulation of VEGF gene expression in HUVEC by f-PSA, PSA-P3L and PSA-P3C. To produce the results summarized in FIG. 17, nearly confluent monolayers of HUVEC were treated with 10 uM of f-PSA or PSA-P3L; RNA extracted and reverse transcribed. The c-DNA was amplified by Real-time QPCR using specific primers. The results shown are average of three experiments. […] The data represents an average of three experiments. […] Thus, in one embodiment, the invention provides a method for inhibiting VEGF expression in human endothelial cells comprising contacting the cells with one or more peptides of the invention.

Data set [4] has as its system FAK gene expression in HUVEC. Briefly: FAK gene expression in HUVEC, Real-time QPCR. The class given is cell-based, human. The note with it: 10 uM, average of three experiments. The method, then: FIG. 16 is a graphical representation of data showing modulation of FAK gene expression in HUVEC by f-PSA and PSA-P3L. To produce the results summarized in FIG. 16, nearly confluent monolayers of HUVEC were treated with 10 uM of f-PSA or PSA-P3L; RNA extracted and reverse transcribed. The c-DNA was amplified by Real-time QPCR using specific primers. The results shown are the average of three experiments. […] The other experimental details are similar to all gene expression studies. Thus, in one embodiment, the invention provides a method for inhibiting FAK gene expression in human endothelial cells comprising contacting the cells with one or more peptides of the invention.

In data set [5] the test system is FLT1 gene expression in HUVEC. Nature of the data set: FLT1 gene expression in HUVEC, Real-time QPCR. It is filed as cell-based, human. To be noted: 10 uM, average of three experiments. The method, then: FIG. 15 is a graphical representation of data showing modulation of FLT1 gene expression in HUVEC by f-PSA and PSA-P31. […] To obtain the data summarized in this figure, nearly confluent monolayers of HUVEC were treated with 10 uM of f-PSA or PSA-P3L; RNA extracted and reverse transcribed. The c-DNA was amplified by Real-time QPCR using specific primer. The results shown are average of three experiments.

Bridges are numbered along the chain shown (N, C = ends). Where no end group is shown, it is not given here.

As for SEPCALPERPS [Peptide #5], in the data set on HUVEC, the reproducible anti-angiogenic activity entry is reported as “did not demonstrate reproducible anti-angiogenic activity”.
Turning to “PSA inactivated by incubation with Zinc^2+: PSA enzymatically inactivated by incubation with Zinc2+ (5.0 μM)”, in the data set with HUVEC cells, the “expression of blood vessel development genes FAK, FLT, KDR, TWIST1, Cathepsin D and P-38” value is recorded as “equally effective”; the “negative modulation of expression of pro-angiogenic growth factors bFGF and VEGF” value was “equally effective”; the “positive modulation of expression of IFN-γ” value is “equally effective”. Further, the “inhibition of tube formation compared with native PSA” value in the data set with HUVEC (over the entire range of PSA concentrations studied) is given as “as inhibitory of tube formation as was native PSA”.
As to `[Cl-].[Cl-].[Zn+2]` [zinc chloride], the PSA activity inhibited on PSA (5.0 μM of Zinc) is on record as > 75%. The “inhibition of enzymatic activity of f-PSA and T-PSA” value against PSA (pre-incubation with zinc chloride 5 μM) is “inhibited completely”.
On to GRWTGGKSTCS [Peptide #4], for which, in the data set with HUVEC, the reproducible anti-angiogenic activity result was “did not demonstrate reproducible anti-angiogenic activity”.
As for “T-PSA: PSA isolated from human prostate cancer tissue specimens”, in data set [1] (fluorogenic substrate hydrolysis), the “enzymatic activity in the assay” value is “demonstrated enzymatic activity”. Further, in data set [1] (per microgram of protein), the “enzymatic activity relative to f-PSA from seminal plasma” value is “roughly 50%”. The “inhibitory activity on endothelial tube formation” value in the data set with HUVEC (equi-molar concentrations of f-PSA and T-PSA) is reported as “equivalent inhibitory activity”.
For the compound “Asn Asp Val Cys Ala Gln Val His Pro Gln Lys Val Thr Lys Phe Met Leu Cys Ala (Ac-NDVCAQVHPQKVTKFMLCA-NH2; disulfide 4-18 (inferred)) [PSA-P3C]”, the ANG2 gene expression result in data set [2] is on record as “significantly inhibited”. Further, in data set [3], the VEGF gene expression entry is given as “significantly down-regulate”. The “inhibition of HUVEC tube formation, cyclic versus linear peptide” value with HUVEC (at certain concentrations, FIG. 11) is recorded as “even more efficiently than linear peptide”. Besides, the FAK gene expression entry in data set [4] is recorded as “significantly down-regulates”.
“PSA-ACT Complex: f-PSA complexed with serine protease inhibitor alpha 1 anti-chymotrypsin (ACT)”: the “anti-angiogenic activity, inhibition of tube formation by HUVEC in Matrigel” value (“anti-angiogenic activity, inhibition” below) in the data set with HUVEC is recorded as “significant loss of anti-angiogenic activity”; in the data set on HUVEC (listed as PSA-ACT complexes), “significantly reduced”.
For the compound NDVAAQVHPQKVTKFMLAA [PSA-P3L], in data set [2], the ANG2 gene expression result is on record as “not significantly different from control”. Moreover, the VEGF gene expression entry in data set [3] was “not significantly different from control”. The “anti-angiogenic activity, inhibition” value in the data set on HUVEC was “significantly inhibit”. Also, in data set [4], the FAK gene expression result is listed as “not significantly different”. In addition, the FLT1 gene expression entry in data set [5] was “effectively inhibit”.
With GWGSIEPEEFLTPKKLQ [Peptide #2], the reproducible anti-angiogenic activity entry in the data set on HUVEC is listed as “did not demonstrate reproducible anti-angiogenic activity”.
On to “KNRFLRPGDDSSH [Peptide #1, amino acids 107-119 of PSA]”, for which the “anti-angiogenic activity, inhibition” value in the data set on HUVEC was “significantly inhibit”. The “inhibition of tubule formation” value with HUVEC (100 μM, FIG. 9) is “maximal inhibition”.
